Assay results: patent US5521196A, “5-HT1F agonists for the treatment of migraine” (Eli Lilly and Company, priority 1994, dated 1996)
Structures can show the parent of a compound that is named as a salt.

system: cephalic vascular smooth muscle; test: not given; details: cited from earlier work

| SMILES | contraction of cephalic vascular smooth muscle |
| --- | --- |
| CNS(=O)(=O)Cc1ccc2[nH]cc(CCN(C)C)c2c1.O=C(O)CCC(=O)O [Compound I, 3-[2-(dimethylamino)ethyl]-N-methyl-1H-indole-5-methanesulfonamide butane-1,4-dioate (1:1)] | contract cephalic vascular smooth muscle |

system: not given; test: not given; details: in vivo; cited from earlier work

| SMILES | effectiveness in the treatment of migraine |
| --- | --- |
| CNS(=O)(=O)Cc1ccc2[nH]cc(CCN(C)C)c2c1.O=C(O)CCC(=O)O [Compound I, 3-[2-(dimethylamino)ethyl]-N-methyl-1H-indole-5-methanesulfonamide butane-1,4-dioate (1:1)] | effective in the treatment of migraine |

target: T1, 5-HT1F receptor (Homo sapiens, UniProt P30939); test: biochemical; details: Table I; displacement of 4.5-5.5 nM [3H]5-HT, 37° C., 30 minutes; read-out: 5-HT1F BINDING Ki
T1 sequence (P30939 1-366): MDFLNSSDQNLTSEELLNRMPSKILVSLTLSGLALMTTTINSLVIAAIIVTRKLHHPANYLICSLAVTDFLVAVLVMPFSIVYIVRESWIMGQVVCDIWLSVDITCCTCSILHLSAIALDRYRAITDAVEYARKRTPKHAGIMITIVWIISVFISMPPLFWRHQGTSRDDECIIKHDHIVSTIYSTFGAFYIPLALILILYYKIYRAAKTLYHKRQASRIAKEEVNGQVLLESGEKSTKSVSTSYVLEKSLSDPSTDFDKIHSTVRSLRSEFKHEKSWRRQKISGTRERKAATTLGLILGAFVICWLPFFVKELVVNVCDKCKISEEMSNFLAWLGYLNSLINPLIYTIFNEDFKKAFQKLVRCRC

| Ki | SMILES |
| --- | --- |
| 1.1 nM | CCCn1cc(CCN2CCC(c3c[nH]c4ccc(O)cc34)CC2)cn1 [Example 53, 5-hydroxy-3-<1-<2-<1-propyl-1H-pyrazol-4-yl>ethyl>-4-piperidinyl>-1H-indole] |
| 48.4 nM | Clc1ccc2[nH]cc(C3CCN(CCc4cnn(-c5ccccc5Br)c4)CC3)c2c1 [Example 35, 5-chloro-3-<1-<2-<1-(2-bromophenyl)-1H-pyrazol-4-yl>ethyl>-4-piperidinyl>-1H-indole oxalate] |
| 5 nM | CC(C)n1cc(CCN2CCC(c3c[nH]c4ccc(Br)cc34)CC2)cn1 [Example 9, 5-bromo-3-<1-<2-<1-(1-methylethyl)-1H-pyrazol-4-yl>ethyl>-4-piperidinyl>-1H-indole oxalate] |
| 27 nM | Fc1ccc2[nH]cc(C3CCN(CCc4ccccn4)CC3)c2c1 [Example 45, 5-fluoro-3-<1-<2-<pyridin-2-yl>ethyl>-4-piperidinyl>-1H-indoledihydrochloride] |
| 5.5 nM | Fc1ccc2[nH]cc(C3CCN(CCc4cnn(-c5ccccc5)c4)CC3)c2c1 [Example 24, 5-fluoro-3-<1-<2-<1-phenyl-1H-pyrazol-4-yl>ethyl>-4-piperidinyl>-1H-indoleoxalate] |
| 53.9 nM | Fc1ccc2[nH]cc(C3CCN(CCc4cc[nH]c4)CC3)c2c1 [Example 44, 5-fluoro-3-<1-<2-<1H-pyrrol-3-yl>ethyl>-4-piperidinyl>-1H-indole oxalate] |
| 44.1 nM | Clc1ccc2[nH]cc(C3CCN(CCc4cnn(-c5ccccc5Cl)c4)CC3)c2c1 [Example 32, 5-chloro-3-<1-<2-<1-(2-chlorophenyl)-1H-pyrazol-4-yl>ethyl>-4-piperidinyl>- 1H-indole oxalate] |
| 63.5 nM | COc1ccccc1-n1cc(CCN2CCC(c3c[nH]c4ccc(Cl)cc34)CC2)cn1 [Example 39, 5-chloro-3-<1-<2-<1-(2-methoxyphenyl)-1H-pyrazol-4-yl>ethyl>-4-piperidinyl>-1H-indole oxalate] |
| 5.7 nM | CCCn1cc(CCN2CCC(c3c[nH]c4ccc(Cl)cc34)CC2)cn1 [Example 14, 5-chloro-3-<1-<2-<1-propyl-1H-pyrazol-4-yl>ethyl>-4-piperidinyl>-1H-indoleoxalate] |
| 34 nM | Clc1ccc2[nH]cc(C3CCN(CCc4cnn(C5CCCCC5)c4)CC3)c2c1 [Example 18] |
| 3 nM | Cn1cc(CCN2CCC(c3c[nH]c4ccc(Br)cc34)CC2)cn1 [Example 4, 5-bromo-3-<1-<2-<1-methyl-1H-pyrazol-4-yl>ethyl>-4-piperidinyl>-1H-indoleoxalate] |
| 6.6 nM | CCCn1cc(CCN2CCC(c3c[nH]c4ccc(Br)cc34)CC2)cn1 [Example 15, 5-bromo-3-<1-<2-<1-propyl-1H-pyrazol-4-yl>ethyl>-4-piperidinyl>-1H-indoleoxalate] |
| 43.2 nM | Cc1cccc(-n2cc(CCN3CCC(c4c[nH]c5ccc(Cl)cc45)CC3)cn2)c1 [Example 42, 5-chloro-3-<1-<2-<1-(3-methylphenyl)-1H-pyrazol-4-yl>ethyl>-4-piperidinyl>- 1H-indole oxalate] |
| 9.5 nM | COc1ccc2[nH]cc(C3CCN(CCc4cnn(-c5ccccc5)c4)CC3)c2c1 [Example 27, 5-methoxy-3-<1-<2-<1-phenyl-1H-pyrazol-4-yl>ethyl>-4-piperidinyl>-1H-indoleoxalate] |
| 4.1 nM | CC(C)n1cc(CCN2CCC(c3c[nH]c4ccc(Cl)cc34)CC2)cn1 [Example 8, 5-chloro-3-<1-<2-<1-(1-methylethyl)-1H-pyrazol-4-yl>ethyl>-4-piperidinyl>-1H-indole] |
| 3.3 nM | CCCn1cc(CCN2CCC(c3c[nH]c4ccccc34)CC2)cn1 [Example 12, 3-<1-<2-<1-propyl-1H-pyrazol-4-yl>ethyl>-4-piperidinyl>-1-H-indole oxalate] |
| 142 nM | Clc1ccc2[nH]cc(C3CCN(CCc4cnn(-c5cccc(Br)c5)c4)CC3)c2c1 [Example 36, 5-chloro-3-<1-<2-<1-(3-bromophenyl)-1H-pyrazol-4-yl>ethyl>-4-piperidinyl>-1H-indole oxalate] |
| 2.3 nM | CC(C)n1cc(CCN2CCC(c3c[nH]c4ccc(O)cc34)CC2)cn1 [Example 50, 5-hydroxy-3-<1-<2-<1-(1-methylethyl)-1H-pyrazol-4-yl>ethyl>-4-piperidinyl>-1H-indole] |
| 2.4 nM | Oc1ccc2[nH]cc(C3CCN(CCc4cnn(-c5ccccc5)c4)CC3)c2c1 [Example 52, 5-hydroxy-3-<1-<2-<1-phenyl-1H-pyrazol-4-yl>ethyl>-4-piperidinyl>-1H-indole] |
| 49.4 nM | Brc1ccc2[nH]cc(C3CCN(CCc4cnn(C5CCCCC5)c4)CC3)c2c1 [Example 19] |
| 24 nM | NC(=O)c1ccc2[nH]cc(C3CCN(CCc4cnn(-c5ccccc5)c4)CC3)c2c1 [Example 28, 5-carboxamido-3-<1-<2-<1-phenyl-1H-pyrazol-4-yl>ethyl>-4-piperidinyl>-1H-indole] |
| 65.6 nM | Clc1ccc2[nH]cc(C3CCN(CCc4cnn(-c5ccc(Br)cc5)c4)CC3)c2c1 [Example 37, 5-chloro-3-<1-<2-<1-(4-bromophenyl)-1H-pyrazol-4-yl>ethyl>-4-piperidinyl>-1H-indole] |
| 12.7 nM | COc1ccc(-n2cc(CCN3CCC(c4c[nH]c5ccc(Cl)cc45)CC3)cn2)cc1 [Example 40, 5-chloro-3-<1-<2-<1-(4-methoxyphenyl)-1H-pyrazol-4-yl>ethyl>-4-piperidinyl>-1H-indole] |

| SMILES | Ki |
| --- | --- |
| CC(C)n1cc(CCN2CC=C(c3c[nH]c4ccc(Cl)cc34)CC2)cn1 [Example 55, 5-chloro-3-<1,2,3,6-tetrahydro-1-<2-<1-(1-ethylmethyl)-1H-pyrazol-4-yl>ethyl>-4-pyridinyl>-1H-indole] | 7.4 nM |

system: neurogenic inflammation; test: not given; details: in vivo; cited from earlier work

| SMILES | block of neurogenic inflammation |
| --- | --- |
| CNS(=O)(=O)Cc1ccc2[nH]cc(CCN(C)C)c2c1.O=C(O)CCC(=O)O [Compound I, 3-[2-(dimethylamino)ethyl]-N-methyl-1H-indole-5-methanesulfonamide butane-1,4-dioate (1:1)] | blocked |

system: protein extravasation in the dura from stimulation of the trigeminal ganglion; test: not given; details: iv

| SMILES | Inhibition of Protein Extravasation, i.v. ID50 |
| --- | --- |
| CCN(CC)C1CCc2cccc(Cl)c2C1.Cl (centres unmarked) [Compound IV, 8-chloro-2-diethylamino-1,2,3,4-tetrahydronaphthalene hydrochloride] | 1.2e-07 nmol/kg |
| CNS(=O)(=O)Cc1ccc2[nH]cc(CCN(C)C)c2c1.O=C(O)CCC(=O)O [Compound I, 3-[2-(dimethylamino)ethyl]-N-methyl-1H-indole-5-methanesulfonamide butane-1,4-dioate (1:1)] | 2.6e-08 nmol/kg |
